According to ChEMBL document CHEMBL1938376, “In vitro and in silico studies of polycondensed diazine systems as anti-parasitic agents” (Bioorg Med Chem Lett, 2012):

Assays:
[1] = Solubility of the compound in 13% DMSO/water; format: physicochemical; conditions: buffer
MRC5 = assay: Cytotoxicity against human MRC5 cells after 4 to 7 days using alamar blue/resazurin staining by fluorescence assay; format: cell-based
Trypanosoma cruzi = assay: Antiparasitic activity against nifurtimox-sensitive amastigotes of Trypanosoma cruzi Tulahuen expressing LacZ gene infected in human MRC5 cells using chlorophenolred b-Dgalacto-pyranoside as substrate by colorimetric method; format: functional, organism-based
Leishmania infantum = assay: Antiparasitic activity against amastigotes of Leishmania infantum infected in mouse peritoneal macrophages after 5 days using giemsa staining by microscopic analysis; format: functional, organism-based
Trypanosoma brucei = assay: Antiparasitic activity against trypomastigote form of drug-sensitive Trypanosoma brucei assessed as inhibition of parasite growth after 4 days using alamar blue/resazurin staining by fluorimetric method; format: functional, organism-based
Plasmodium falciparum = assay: Antimalarial activity against chloroquine-sensitive Plasmodium falciparum GHA infected in human erythrocytes assessed as parasite growth after 72 hrs by malstat reagent based spectrophotometric method; format: functional, organism-based
[2] = Selectivity index, ratio of IC50 for human MRC5 cells to IC50 for drug-sensitive trypomastigotes of Trypanosoma brucei; format: toxicity, cell-based; conditions: read-out: Ratio IC50
[3] = Solubility of the compound; format: physicochemical
[4] = Solubility of the compound in 100% DMSO; format: physicochemical
[5] = Selectivity index, ratio of IC50 for human MRC5 cells to IC50 for nifurtimox-sensitive amastigotes of Trypanosoma cruzi; format: toxicity, cell-based; conditions: read-out: Ratio IC50
[6] = Selectivity index, ratio of IC50 for human MRC5 cells to IC50 for chloroquine-sensitive Plasmodium falciparum GHA; format: toxicity, cell-based; conditions: read-out: Ratio IC50
[7] = Trypanosoma cruzi, Tulahuen, MRC5
[8] = Plasmodium falciparum, GHA, 72 h

| solubility [1] | IC50 (Leishmania infantum; Leishmania infantum, 120 h) [µM] | IC50 (Trypanosoma brucei; Trypanosoma brucei, 96 h) [µM] | solubility [3] | solubility [4] | IC50 (Trypanosoma brucei) [µM] | IC50 (Leishmania infantum) [µM] | Structure (SMILES) | IC50 (MRC5; Homo sapiens, MRC5) [µM] | IC50 (Trypanosoma cruzi; [7]) [µM] | IC50 (Plasmodium falciparum; [8]) [µM] | selectivity ratio [2] | selectivity ratio [5] | selectivity ratio [6] | IC50 (MRC5; mrc5) [µM] | IC50 (Trypanosoma cruzi; mrc5) [µM] | IC50 (Plasmodium falciparum) [µM] |
| --- | --- | --- | --- | --- | --- | --- | --- | --- | --- | --- | --- | --- | --- | --- | --- | --- |
| soluble | 32.5 | 2.03 | soluble |  |  |  | O=C(C1=NN(c2ccccc2)C2C3N(c4ccccc4)N=C(C(=O)c4ccccc4)N3c3ccccc3N12)c1ccccc1 (configuration not stated) | 17.6 | 64 | 27.7 | 2 |  |  |  |  |  |
| soluble | 64 | 64 |  |  |  |  | C1=NN(c2ccccc2)C2C3N(C=NN3c3ccccc3)c3ccccc3N12 (configuration not stated) | 64 | 64 | 29.8 |  |  |  |  |  |  |
| soluble | 64 | 64 |  |  |  |  | COC(=O)C1=NN(c2ccccc2)C2=CNc3c(C)cccc3N21 | 64 | 64 | 64 |  |  |  |  |  |  |
| soluble | 32.5 | 64 |  |  |  |  | COC(=O)C1=NN(c2ccccc2)C2C3N(c4ccccc4)N=C(C(=O)OC)N3c3[nH]c(-c4ccccc4)cc3N12 (configuration not stated) | 64 | 64 | 6.87 |  |  |  |  |  |  |
|  | 32.5 | 64 | soluble | Insoluble |  |  | CC(=O)C1=NN(c2ccccc2)C2C3N(c4ccccc4)N=C(C(C)=O)N3c3[nH]c(-c4ccccc4)cc3N12 (configuration not stated) | 64 | 64 | 2.15 |  |  |  |  |  |  |
| soluble | 64 | 32.2 |  |  |  |  | CCOC(=O)C1=NN(c2ccc(Cl)cc2)C2C3N(c4ccc(Cl)cc4)N=C(C(=O)OCC)N3c3[nH]c(-c4ccccc4)cc3N12 (configuration not stated) | 64 | 40.3 | 26.9 |  |  |  |  |  |  |
|  | 64 | 64 |  | Insoluble |  |  | C1=C(c2ccccc2)NC2=NC=C3N(c4ccccc4)N=C(c4ccccc4)N3C12 (configuration not stated) | 64 | 64 | 64 |  |  |  |  |  |  |
|  | 64 | 64 |  | Insoluble |  |  | COC(=O)C1=NN(c2ccccc2)C2=CN=C3NC(c4ccccc4)=CC3N21 (configuration not stated) | 64 | 64 | 64 |  |  |  |  |  |  |
| soluble | 64 | 64 |  |  |  |  | COC(=O)C1=NN(c2ccc(Cl)cc2)C2C3N(c4ccc(Cl)cc4)N=C(C(=O)OC)N3c3c(C)cccc3N12 (racemic) | 64 | 64 | 42.6 |  |  |  |  |  |  |
| soluble | 64 | 64 |  |  |  |  | COC(=O)C1=NN(c2ccccc2)[C@@H]2N1c1ccccc1N1C(C(=O)OC)=NN(c3ccccc3)[C@@]21C (racemic) | 64 | 4.29 | 11.6 |  | 6 |  |  |  |  |
| soluble | 64 | 64 | soluble |  |  |  | CCOC(=O)C1=NN(c2ccc(Cl)cc2)[C@@H]2N1c1ccccc1N1C(C(=O)OCC)=NN(c3ccc(Cl)cc3)[C@@]21C (racemic) | 64 | 64 | 0.5 |  |  | 128 |  |  |  |
| soluble | 24.1 | 32.2 |  |  |  |  | CC(=O)C1=NN(c2ccccc2)[C@@H]2N1c1ccccc1N1C(C(C)=O)=NN(c3ccccc3)[C@@]21C (racemic) | 64 | 33.7 | 29.2 |  |  |  |  |  |  |
| soluble | 8 | 2.06 |  |  |  |  | C[C@]12[C@@H]3N(c4ccccc4)N=C(C(=O)c4ccccc4)N3c3ccccc3N1C(C(=O)c1ccccc1)=NN2c1ccccc1 (racemic) | 64 | 10.1 | 8.23 | 2 |  |  |  |  |  |
| soluble | 64 | 64 |  |  |  |  | COC(=O)C1=NN(c2ccc(Cl)cc2)C2(C1)Nc1ccccc1N1C(C(=O)OC)=NN(c3ccc(Cl)cc3)C12 (racemic) | 64 | 64 | 64 |  |  |  |  |  |  |
| soluble | 32 |  |  |  | 64 |  | CC(=O)C1=NN(c2ccccc2)C2C3N(c4ccccc4)N=C(C(C)=O)N3c3ccccc3N12 (stereo in doubt; 4a) |  |  |  |  |  |  | 64 | 38.1 | 64 |
|  |  |  |  |  | 8.06 | 32.5 | CC(=O)C1=NN(c2ccccc2)C2C3N(c4ccccc4)N=C(C(C)=O)N3c3ccccc3N12 (stereo in doubt; 4b) |  |  |  |  |  |  | 29.6 | 12.6 | 8.48 |
| soluble | 64 | 64 |  |  |  |  | COC(=O)C1=NN(c2ccccc2)C2C3N(c4ccccc4)N=C(C(=O)OC)N3c3ccccc3N12 (stereo in doubt; 4d) | 64 | 64 |  |  | 6 |  |  |  | 12.3 |
|  |  |  |  |  | 34.6 |  | COC(=O)C1=NN(c2ccccc2)C2C3N(c4ccccc4)N=C(C(=O)OC)N3c3ccccc3N12 (stereo in doubt; 4e) |  |  |  |  |  |  | 33.1 | 42.5 | 25.6 |
| soluble | 64 |  |  |  | 64 |  | CCOC(=O)C1=NN(c2ccc(Cl)cc2)C2C3N(c4ccc(Cl)cc4)N=C(C(=O)OCC)N3c3ccccc3N12 (stereo in doubt; 4f) |  |  |  |  |  |  | 64 | 64 | 37.3 |
|  |  |  | soluble |  | 2.01 | 32 | CCOC(=O)C1=NN(c2ccc(Cl)cc2)C2C3N(c4ccc(Cl)cc4)N=C(C(=O)OCC)N3c3ccccc3N12 (stereo in doubt; 4g) |  |  |  | 2 | 6 |  | 12.4 | 8.75 | 18.6 |
